By CC50 is commonly meant the concentration at which the toxic effect on the cells reaches its halfway point. A lower CC50 goes with greater toxicity to the cells. What is called melting point is the temperature, or range, at which the solid turns liquid.

We go through 38 compounds from US11084826B2, “RSV antiviral pyrazolo- and triazolo-pyrimidine compounds” (Janssen Sciences Ireland Unlimited Company, priority 2015, dated 2021).

The subject of one data set is rgRSV224 virus. The experiment in a line: Antiviral activity: inhibition of rgRSV224 (GFP-expressing RSV) replication in HeLa cells, GFP expression read-out. The data set is classed as cell-based, respiratory syncytial virus (RSV). To be noted: human respiratory syncytial virus, HeLa, read-out: RSV HELA pEC50, rgRSV224 virus (MOI=1) in HeLa cells, GFP read-out (converted). In short, it runs like this:
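HeLa cells (3,000/well) were infected with GFP-expressing rgRSV224 (MOI=1) in the presence of 9 serial 4-fold compound dilutions (0.05% DMSO) and incubated at 37° C, 5% CO2. After three days, GFP expression was measured by laser microscopy. EC50 is the concentration giving 50% inhibition of GFP expression.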

Data set [1] in a line: Cytotoxicity in HeLa cells, ATP content measured with the ATPlite kit. The data set is classed as cell-based. Conditions: human, TOX HELA pCC50.

The compound `CCc1cc(C(=O)N2CCCCC[C@H]2C)nc2cc(-c3ccc(C(N)=O)cc3)nn12` [Compound A26] returned a melting point of 160 to 165 °C. The EC50 in the data set with rgRSV224 virus was 195 nM. In data set [1], this compound gave a CC50 at 3 days greater than 25100 nM.
For `CCc1cc(C(=O)N2CCCCC[C@H]2C)nc2cc(-c3ccc(N4CC=C(C(=O)O)CC4)cc3F)nn12` [Compound W11] the same measures were 277.45 °C, 234 nM and 58900 nM.
In turn, `CCc1cc(C(=O)N2CCCCCC2C)nc2cc(-c3ccc(NC(=O)C4CC4)cc3F)nn12` (stereo not drawn) [Compound E11] came in with a melting point of 145 °C. Also, the EC50 in the data set on rgRSV224 virus was 631 nM. The CC50 at 3 days in data set [1] is greater than 25100 nM.
As for `CCc1cc(C(=O)N2CCCC3(CC=CC3)C2C)nc2cc(-c3ccc(/C=C/C(=O)O)cc3F)nn12` (racemic) [Compound M35], the melting point worked out at 206.72 °C. For the same compound, the EC50 in the data set on rgRSV224 virus is 200 nM. Besides, in data set [1], the CC50 at 3 days is 42700 nM.
For `CCc1cc(C(=O)N2CCCCCC2C)nc2cc(-c3ccc(N/C(=N/C#N)NC4CC4)cc3)nn12` (stereo not drawn) [Compound B18] the same measures were 222 to 223 °C, 1150 nM and greater than 25100 nM.
The corresponding values for `CCc1cc(C(=O)N2CCCCCC2C)nc2cc(-c3ccc(-c4cnn(C)c4)cc3F)nn12` (stereo not drawn) [Compound F9] are 65 to 67 °C, 661 nM and greater than 25100 nM.
In turn, `CCc1cc(C(=O)N2CCCCCC2C)nc2c(Cl)c(-c3ccc(NC(=O)C4CC4)cc3F)nn12` (stereo not drawn) [Compound E13] had a melting point of 245 to 250 °C. Moreover, the EC50 in the data set on rgRSV224 virus was 1480 nM. Moreover, in data set [1], the CC50 at 3 days was greater than 25100 nM.
In the case of `CCc1cc(C(=O)N2CCCCCC2C)nc2cc(-c3ccc(-c4cn(C)c(C)n4)cc3F)nn12` (stereo not drawn) [Compound F10], the melting point is 118 to 119 °C. Further, the EC50 in the data set on rgRSV224 virus is 692 nM. Further, in data set [1], the CC50 at 3 days is greater than 25100 nM.
The corresponding values for `CCc1cc(C(=O)N2CCCCC[C@H]2C)nc2cc(-c3ccc([C@@H]4C[C@@H]4C(=O)O)cc3F)nn12` (racemic) [Compound O16] are 333.46 °C, 170 nM and greater than 100000 nM.
In turn, `CCc1cc(C(=O)N2CCc3ccccc3[C@H]2C)nc2cc(-c3ccc(-n4cc(C(=O)O)cn4)cc3F)nn12` [Compound W27] registered a melting point of 144.43 °C. Besides, in the data set on rgRSV224 virus, the EC50 was 39.8 nM. The compound also had a CC50 at 3 days in data set [1] of 46800 nM.
The corresponding values for `C[C@@H]1CCCCCN1C(=O)c1cc(C2(C)CC2)n2nc(-c3ccc(-n4cc(C(=O)O)cn4)cc3F)cc2n1` [Compound W10] are 239.85 °C, 30.9 nM and 52500 nM.
`C[C@@H]1CCCCCN1C(=O)c1cc(C2(C)CC2)n2nc(-c3ccc(C4C[C@H]4C(=O)O)cc3F)cc2n1` (mixture of isomers) [Compound O10] displayed a melting point of 333.75 °C. The EC50 in the data set on rgRSV224 virus is 28.8 nM. This compound also had a CC50 at 3 days in data set [1] of 45700 nM.
The corresponding values for `CC1c2ccsc2CCN1C(=O)c1cc(C2CC2)n2nc(-c3ccc(C4C[C@H]4C(=O)O)cc3F)cc2n1` (single isomer, unassigned) [Compound O20] are 252.97 °C, 8.13 nM and 52500 nM.
`CCc1cc(C(=O)N2CCCCC[C@H]2C)nc2cc(-c3ccc(-c4ncc(C(=O)O)s4)cc3F)nn12` (racemic) [Compound F43]: the melting point was determined as 177.53 °C. For the same compound, in the data set on rgRSV224 virus, the EC50 is 61.7 nM. The compound also showed a CC50 at 3 days in data set [1] of 42700 nM.
In turn, `CC1c2ccccc2CCN1C(=O)c1cc(N(C)C)n2nc(-c3ccc(/C=C/C(=O)O)cc3F)cc2n1` (stereo not drawn) [Compound M10] gave a melting point of 243 to 245 °C. Moreover, in the data set on rgRSV224 virus, the EC50 is 47.9 nM. Also, the CC50 at 3 days in data set [1] was 20000 nM.
The corresponding values for `CCc1cc(C(=O)N2CCCCCCC2C)nc2cc(-c3ccc(C(=O)O)cc3F)nn12` (stereo not drawn) [Compound K4] are 133 to 134 °C, 275 nM and greater than 25100 nM.
For `CCCC(=O)Nc1ccc(-c2cc3nc(C(=O)N4CCCCCC4C)cc(CC)n3n2)cc1` (stereo not drawn) [Compound E20] the same measures were 268 to 270 °C, 692 nM and greater than 25100 nM.
The corresponding values for `CCc1cc(C(=O)N2CCCCCC2C)nc2cc(-c3ccc(NC(=O)C4CC4)cc3C)nn12` (stereo not drawn) [Compound E16] are 223 °C, 1320 nM and greater than 10000 nM.
Compound `CCc1cc(C(=O)N2CCCCCC2C)nc2cc(-c3ccc(NC(=O)CC4CCCCN(C)C4=O)cc3)nn12` (stereo not drawn) [Compound E9] returned a melting point of 255 to 260 °C. In addition, the EC50 in the data set with rgRSV224 virus was 170 nM. In addition, the CC50 at 3 days in data set [1] is greater than 25100 nM.
For `CCc1cc(C(=O)N2CCCCCC2C)nc2cc(-c3ccc(NC(=S)NCC4CCCO4)cc3F)nn12` (stereo not drawn) [Compound B13] the same measures were 210 to 215 °C, 398 nM and greater than 25100 nM.
The corresponding values for `CCc1cc(C(=O)N2CCc3sccc3[C@H]2C)nc2cc(-c3ccc4c(c3F)OCC(C(=O)O)=C4)nn12` (racemic) [Compound F66] are 256.54 °C, 7.08 nM and 15500 nM.
Take `CCc1cc(C(=O)N2CCc3sccc3C2C)nc2cc(-c3ccc(-c4ccc(C(=O)O)cn4)cc3F)nn12` (racemic) [Compound F60]: the melting point was found to be 270.54 °C. Also, the EC50 in the data set on rgRSV224 virus was 45.7 nM. This compound showed a CC50 at 3 days in data set [1] greater than 25100 nM.
`CCc1cc(C(=O)N2CCCCC[C@H]2C)nc2cc(-c3ccc(-n4cc(C(=O)O)c(Cl)n4)cc3F)nn12` [Compound W35]: the melting point stood at 145.75 °C. The EC50 with rgRSV224 virus was 191 nM. In data set [1], this compound came in with a 50% cytotoxic concentration (CC50) at 3 days greater than 25100 nM.
The corresponding values for `CCc1cc(C(=O)N2CCCCCC2C)nc2cc(-c3ccc(NC(=S)NC4CC4)cc3F)nn12` (stereo not drawn) [Compound B14] are 220 to 222 °C, 437 nM and greater than 25100 nM.
As for `CCc1cc(C(=O)N2CCCC[C@H]2C)nc2cc(-c3ccc(C(N)=O)cc3)nn12` [Compound A27], the melting point lay in the range of 160 to 165 °C. In addition, the EC50 in the data set with rgRSV224 virus is 871 nM. In addition, the CC50 at 3 days in data set [1] is greater than 25100 nM.
For `CCc1cc(C(=O)N2CCCCC[C@H]2C)nc2cc(-c3ccc(N4CCC(C)(C(=O)O)C4)cc3F)nn12` (stereo partly drawn) [Compound W17] the same measures were 172.28 °C, 21.9 nM and 58900 nM.
Compound `CCc1cc(C(=O)N2CCCCCC2C)nc2cc(-c3ccc(S(=O)(=O)NC)cc3F)nn12` (stereo not drawn) [Compound P3] gave a melting point of 116 °C. For the same compound, the EC50 in the data set with rgRSV224 virus is 692 nM. Further, in data set [1], the cytotoxic concentration (CC50) at 3 days was greater than 25100 nM.
For `CCc1cc(C(=O)N2CC(C)(C)c3ccccc3C2C)nc2cc(-c3ccc(C(=O)O)cc3F)nn12` (stereo not drawn) [Compound K6], the melting point lay in the range of 235 to 240 °C. In the data set with rgRSV224 virus, the EC50 is 2400 nM. The compound also showed a CC50 at 3 days in data set [1] greater than 25100 nM.
With `CCc1cc(C(=O)N2CCCCCC2C)nc2cc(-c3ccc(C(=O)O)cc3F)nn12` (stereo not drawn) [Compound K2], the melting point was determined as 210 °C. The EC50 with rgRSV224 virus is 562 nM. In data set [1], this compound displayed a CC50 at 3 days greater than 25100 nM.
For `CCc1cc(C(=O)N2CCCCC[C@H]2C)nc2cc(-c3ccc(N4CC[C@@H](C(=O)O)C4)cc3F)nn12` [Compound W6] the same measures were 214.84 °C, 81.3 nM and 69200 nM.
For `CCc1cc(C(=O)N2CCCCCC2C)nc2cc(-c3ccc(-c4nc(C)c(C(=O)O)s4)cc3F)nn12` (stereo not drawn) [Compound F18] the same measures were 165 to 170 °C, 200 nM and greater than 25100 nM.
`C[C@@H]1CCCCCN1C(=O)c1cc(N(C)C)n2nc(-c3ncc(/C=C/C(=O)O)cc3Cl)cc2n1` [Compound M12] gave a melting point of 197 to 199 °C. For the same compound, in the data set on rgRSV224 virus, the EC50 is 4070 nM. The compound further showed a 50% cytotoxic concentration (CC50) at 3 days in data set [1] greater than 25100 nM.
For `CCc1cc(C(=O)N2CCCCCC2C)nc2cc(-c3ccc4[nH]cnc4c3)nn12` (stereo not drawn) [Compound A13] the same measures were 145 to 150 °C, 331 nM and greater than 25100 nM.
Turning to `CCc1cc(C(=O)N2CCc3sccc3[C@H]2C)nc2cc(-c3cccc(/C=C/C(=O)O)c3F)nn12` (single isomer, unassigned) [Compound M49], the melting point was determined as 262.19 °C. For the same compound, the EC50 in the data set on rgRSV224 virus is 10 nM. In addition, half-maximal cytotoxicity in data set [1] (CC50 at 3 days) was put at 41700 nM.
The corresponding values for `CCc1cc(C(=O)N2CCCCCC2C)nc2cc(-c3ccc(C(=O)NCCNC(C)=O)cc3F)nn12` (stereo not drawn) [Compound L4] are 174 °C, 234 nM and greater than 25100 nM.
For `CCc1cc(C(=O)N2CCCCCC2C)nc2cc(-c3ccc(C#N)cc3F)nn12` (stereo not drawn) [Compound H5] the same measures were 95 °C, 813 nM and greater than 25100 nM.
The corresponding values for `CC1c2ccsc2CCN1C(=O)c1cc(C2CC2)n2nc(-c3ccc(N4CC[C@H](C(=O)O)C4)cc3F)cc2n1` (single isomer, unassigned) [Compound W37] are 231.1 °C, 5.62 nM and 45700 nM.
Take `CCc1cc(C(=O)N2CCc3ccccc3C2C)nc2cc(-c3ccc(/C=C/C(=O)O)cc3F)nn12` (stereo not drawn) [Compound M11]: the melting point was 225 to 230 °C. In addition, in the data set with rgRSV224 virus, the EC50 is 38 nM. This compound registered a CC50 at 3 days in data set [1] greater than 25100 nM.
